Experimental data taken from patent US20020090352A1, “Compositions and methods for use in modulating immune system function” (priority 2000, published 2002).
Entries after “also recorded” stand apart in the source; their conditions may differ.

Columns and labels:
[1] = system: immature LC (Langerhans cells); experiment: Apoptosis of immature LC, flow cytometry of PI stained nuclei (sub 2N particles) / annexin V; assay type: cell-based, human; settings: for induction of apoptosis / death of immature LC by the substance on its own: no TNFα; for induction of apoptosis / death of immature LC by the substance on its own / inhibition of retinoid-induced apoptosis / cell death of immature LC / synergy with the pan-RXR agonist SR11237 to induce LC death: result in words
[2] = system: immature LC (Langerhans cells); experiment: Activation of immature LC: HLA-DR and CD86 expression by flow cytometry; assay type: cell-based, human; set-up: class II or CD86 upregulation on immature LC: dose or concentration left out as unconfirmed; settings: for activation of immature LC (class II / CD86, DRhi-CD86hi) in the presence of TNFα: TNFα 1-10 ng/ml
Protocol: Immature LC were cultured with retinol or vehicle and/or TNFα for 40 h. Cells were washed and incubated with HLA-DR-FITC and CD86-PE or isotype controls for 15 min at 4° C. 10^4 events were then analyzed with a FACScalibur (Becton Dickinson) using CellQuest software (Becton Dickinson). % are given for DRhi CD86hi cells gated as indicated. Data are representative of three experiments on different donors.
FIG. 3A: Day 6 immature LC were cultured for 40 h with TNFα and/or retinoids or vehicle as indicated. Cells were washed and stained with HLA-DR-FITC and CD86-PE or isotype controls for 15 min at 4° C. 10^4 events were then analyzed with a FACScalibur (Becton Dickinson) using CellQuest software (Becton Dickinson). Data are given for DRhi/CD86 hi cells gated as indicated, and are representative of 10 experiments on different donors.
Percentages of DRhi/CD86 hi cells are represented and results are expressed as the mean±SD of at last three experiments on different donors.
Flow Cytometry Analysis. 1×10^5 cells were incubated in 96-well plates (Becton Dickinson Labware, Franklin Lakes, N.J.) for 15 min at 4 ° C. in PBS, 2% human AB serum, and 0.01 M NaN3, with FITC-conjugated anti-DR (Immunotech, Marseille, France) and PE-conjugated CD86 (Pharmingen, San Diego, Calif.) at the appropriate concentration, or with control isotype-matched irrelevant mAbs at the same concentration. After washing, 10^4 events were analyzed with a FACScalibur (Becton Dickinson Immunocytometry Systems, Mountain View, Calif.) using CellQuest software.

RXR AF2 = settings: retinoid activity, reporter cells; cited from earlier work
RARα AF2 = molecular target: T1, RARα AF2 (Homo sapiens, UniProt P10276); settings: retinoid activity, reporter cells; cited from earlier work; note: key: '+' = agonist; '(+)' = weak agonist; '−' = antagonist; '0' = absence of agonist and antagonist activities
T1 construct: expressed in transfected cells
T1 sequence (P10276 183-417 limits assumed): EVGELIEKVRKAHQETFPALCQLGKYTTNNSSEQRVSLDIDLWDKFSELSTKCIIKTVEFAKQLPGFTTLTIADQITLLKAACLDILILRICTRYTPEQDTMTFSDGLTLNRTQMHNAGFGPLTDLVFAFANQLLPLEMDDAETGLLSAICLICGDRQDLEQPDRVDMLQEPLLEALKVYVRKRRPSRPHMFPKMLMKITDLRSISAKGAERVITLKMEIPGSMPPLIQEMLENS

RARβ AF2 = molecular target: T2, RARβ AF2 (Homo sapiens, UniProt P10826); settings: retinoid activity, reporter cells; cited from earlier work; note: key: '+' = agonist; '(+)' = weak agonist; '−' = antagonist; '0' = absence of agonist and antagonist activities
T2 construct: expressed in transfected cells
T2 sequence (P10826 183-417 limits assumed): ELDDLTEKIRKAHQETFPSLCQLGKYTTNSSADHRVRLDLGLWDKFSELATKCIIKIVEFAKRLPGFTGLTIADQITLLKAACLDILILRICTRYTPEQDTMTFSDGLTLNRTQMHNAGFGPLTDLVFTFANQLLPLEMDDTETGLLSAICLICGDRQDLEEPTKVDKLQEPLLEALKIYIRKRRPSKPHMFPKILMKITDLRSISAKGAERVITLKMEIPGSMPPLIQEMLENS

RARγ AF2 = molecular target: T3, RARγ AF2 (Homo sapiens, UniProt P13631); settings: retinoid activity, reporter cells; cited from earlier work; note: key: '+' = agonist; '(+)' = weak agonist; '−' = antagonist; '0' = absence of agonist and antagonist activities
T3 construct: expressed in transfected cells
T3 sequence (P13631 185-419 limits assumed): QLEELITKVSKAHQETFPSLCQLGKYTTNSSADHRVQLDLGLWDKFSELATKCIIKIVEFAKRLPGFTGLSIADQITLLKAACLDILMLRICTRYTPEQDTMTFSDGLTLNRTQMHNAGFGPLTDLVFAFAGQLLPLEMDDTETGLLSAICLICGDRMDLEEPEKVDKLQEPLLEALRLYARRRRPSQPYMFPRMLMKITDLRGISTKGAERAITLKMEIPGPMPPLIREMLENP

RXRα homodimer [(RXR)2] = molecular target: T4, RXRα homodimer [(RXR)2] (Homo sapiens, UniProt P19793); settings: retinoid activity, transient transfection; cited from earlier work; note: key: '+' = agonist; '(+)' = weak agonist; '−' = antagonist; '0' = absence of agonist and antagonist activities
T4 construct: expressed in transfected cells
T4 sequence (P19793 1-462): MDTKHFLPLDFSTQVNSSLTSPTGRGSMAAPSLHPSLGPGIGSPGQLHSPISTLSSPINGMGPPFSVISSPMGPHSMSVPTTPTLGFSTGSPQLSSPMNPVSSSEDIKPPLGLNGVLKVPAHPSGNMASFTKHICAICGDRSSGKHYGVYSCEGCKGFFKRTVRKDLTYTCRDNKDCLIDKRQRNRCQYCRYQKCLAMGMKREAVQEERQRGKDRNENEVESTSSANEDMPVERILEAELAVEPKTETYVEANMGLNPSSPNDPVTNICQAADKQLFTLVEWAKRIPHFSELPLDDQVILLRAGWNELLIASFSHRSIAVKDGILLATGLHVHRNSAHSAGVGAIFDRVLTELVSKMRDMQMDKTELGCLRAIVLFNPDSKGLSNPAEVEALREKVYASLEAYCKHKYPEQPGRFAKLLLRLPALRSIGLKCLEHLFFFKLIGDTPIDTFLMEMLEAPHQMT

RARα-RXRα heterodimer = molecular target: T5, RARα-RXRα heterodimer (Homo sapiens, UniProt P10276+P19793); settings: retinoid activity, transient transfection; cited from earlier work
T5 construct: expressed in transfected cells
T5 sequence (P10276 1-462): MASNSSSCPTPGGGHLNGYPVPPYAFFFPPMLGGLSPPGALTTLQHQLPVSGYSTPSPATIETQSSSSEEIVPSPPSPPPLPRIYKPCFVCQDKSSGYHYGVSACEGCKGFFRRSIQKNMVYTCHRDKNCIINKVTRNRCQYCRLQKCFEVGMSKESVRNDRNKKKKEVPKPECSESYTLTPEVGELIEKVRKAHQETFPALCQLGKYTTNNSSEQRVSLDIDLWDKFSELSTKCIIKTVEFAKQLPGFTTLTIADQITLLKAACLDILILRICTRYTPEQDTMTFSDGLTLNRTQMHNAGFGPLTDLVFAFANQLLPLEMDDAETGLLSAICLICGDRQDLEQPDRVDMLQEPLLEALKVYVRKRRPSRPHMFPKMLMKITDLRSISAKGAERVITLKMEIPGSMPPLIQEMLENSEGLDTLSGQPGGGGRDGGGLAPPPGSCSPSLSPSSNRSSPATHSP
T5 sequence (P19793 1-462): T4 sequence (P19793 1-462)

[3] = 1 nM, two days in culture, mean ± SD
[4] = 10 nM, two days in culture, mean ± SD
[5] = 100 nM, two days in culture, mean ± SD
[6] = 1 μM, two days in culture, mean ± SD

| Molecule | percentage of apoptotic (<2N) particles [1, 3] | percentage of apoptotic (<2N) particles [1, 4] | percentage of apoptotic (<2N) particles [1, 5] | percentage of apoptotic (<2N) particles [1, 6] | activation of immature LC (class II / CD86, DRhi-CD86hi) in the presence of TNFα ([2]; result in words) | RXR AF2 (RXR AF2) | inhibition of retinoid-induced apoptosis / cell death of immature LC [1] | RARα AF2 (RARα AF2) | RARβ AF2 (RARβ AF2) | RARγ AF2 (RARγ AF2) | percentage of apoptotic (<2N) particles ([1]; 100 nM SR11237 + 1 nM ligand) | percentage of apoptotic (<2N) particles ([1]; 100 nM SR11237 + 10 nM ligand) | percentage of apoptotic (<2N) particles ([1]; 100 nM SR11237 + 100 nM ligand) | percentage of apoptotic (<2N) particles ([1]; 100 nM SR11237 + 1 μM ligand) | also measured |
| --- | --- | --- | --- | --- | --- | --- | --- | --- | --- | --- | --- | --- | --- | --- | --- |
| CC1=C(/C=C/C(C)=C\C=C\C(C)=C\C(=O)O)C(C)(C)CCC1 [Compound 9cRA, 9-cis retinoic acid, reference compound] | ≦5% | ≦5% | 8 ± 3% | 30 ± 9% | upregulate | + |  |  |  |  |  |  |  |  | induction of apoptosis / death of immature LC by the substance on its own [1]: induced a similar dose- and time-dependent increase in death; class II or CD86 upregulation on immature LC ([2]; in the absence or at low concentrations of TNFα): did not significantly induce |
| IL-1β: Human recombinant IL-1β from R&D Systems |  |  |  |  |  |  | inhibited the apoptotic effect of retinoids |  |  |  |  |  |  |  |  |
| C=C(c1ccc(C(=O)O)cc1)c1cc2c(cc1C)C(C)(C)CC=C2C(C)C [Compound V, 4-[1-[5,6-Dihydro-3,5,5-trimethyl-8-(1-methylethyl)-2-naphthalenyl]ethenyl]benzoic acid] | ≦5% | ≦5% | ≦5% | ≦5% | also synergized with TNFα to activate LC | + |  | − | − | − |  |  |  |  | induction of apoptosis / death of immature LC by the substance on its own [1]: neither SR11237 (Table 3) nor BMS749 exhibited an apoptotic effect; (RXR)2 AF2 (RXRα homodimer [(RXR)2]): +; RARα-RXR DR5 (RARα-RXRα heterodimer): − |
| CC1(C)CC=C(c2ccccc2)c2cc(/C=C/c3ccc(C(=O)O)cc3Cl)ccc21 [Compound III, (E)-3-Chloro-4-[2-(5,6-dihydro-5,5-dimethyl-8-phenyl-2-naphthalenyl)-ethenyl] benzoic acid] | ≦5% | ≦5% | ≦5% | ≦5% | weak effect; also recorded: upregulate | 0 |  | 0 | + | 0 | ≦5% | ≦5% | 16 ± 3% | 30 ± 2% | synergy with the pan-RXR agonist SR11237 to induce LC death [1]: synergized with the pan-RXR agonist to induce LC death |
| TNFα |  |  |  |  |  |  | inhibited the pro-apoptotic effects |  |  |  |  |  |  |  | inhibition of the pro-apoptotic effects of retinol ([1]; 1 ng/ml of TNFα): > 50%; percentage of apoptotic (<2N) particles ([1]; agent + Cmpd. I 1 μM, Cmpd. II 1 μM, Cmpd. VIII 1 μM, Z-Vad 50 μM, TNFα 10 ng/ml, CD40L coculture): 11 ± 1%; percentage of apoptotic (<2N) particles ([1]; agent + Compound I 100 nM + SR11237 100 nM, Cmpd. II 1 μM, Cmpd. VIII 1 μM, Z-Vad 50 μM, TNFα 10 ng/ml, CD40L coculture): 14 ± 2%; percentage of apoptotic (<2N) particles ([1]; agent + Rol 1 μM, Cmpd. VIII 1 μM, TNFα 10 ng/ml): 4.5 ± 1%; percentage of apoptotic (<2N) particles ([1]; agent + tRA 1 μM, Cmpd. II 1 μM, Cmpd. VIII 1 μM, Z-Vad 50 μM, TNFα 10 ng/ml, CD40L coculture): 8 ± 7%; percentage of apoptotic (<2N) particles ([1]; agent alone (column 0), Cmpd. II 1 μM, Cmpd. VIII 1 μM, Z-Vad 50 μM, TNFα 10 ng/ml, CD40L coculture): ≦5% |
| Cc1ccc(S(=O)(=O)N[C@@H](Cc2ccccc2)C(=O)CCl)cc1 [TPCK] |  |  |  |  |  |  |  |  |  |  |  |  |  |  | inhibition of the increase of class II and CD86 on LCs ([2]; LCs treated with tRA and TNFα, TPCK 10 nM): 50%; toxicity on LCs ([2]; TPCK 10 nM, LCs treated with tRA and TNFα): without any evidence of toxicity |
| CC1(C)CC=C(C#Cc2ccccc2)c2cc(/C=C/c3ccc(C(=O)O)cc3)ccc21 [Compound VIII] |  |  |  |  |  | 0 | inhibited retinol-induced cell death; also recorded: strongly inhibited | − | − | − | ≦5% | ≦5% | ≦5% | ≦5% | effect on Compound II / SR11237 synergy for TNFα-induced LC activation ([2]; result in words): inhibited; effect on TNFα-SR11237 synergism for LC activation ([2]; result in words): only a weak effect; effect on synergy between TNFα and retinol, tRA or Compound I on LC activation ([2]; result in words): inhibited; effect on 9cRA-induced LC activation ([2]; with TNFα, result in words): only partially blocked |
| CC1(C)CC=C(c2ccccc2)c2cc(/C=C/c3ccc(C(=O)O)cc3)ccc21 [Compound VII] | ≦5% | ≦5% | ≦5% | 10 ± 6% | weak effect | 0 |  | − | + | − | ≦5% | 5% | 20 ± 6% | 19 ± 7% | synergy with the pan-RXR agonist SR11237 to induce LC death [1]: synergized with the pan-RXR agonist to induce LC death |
